The source of these data is ChEMBL document CHEMBL1201862, “PubChem BioAssay data set” (2004).

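Assay format: 96-well plates, 48-hour exposure. GI50 marks 50% less growth.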 Calls of active or inactive are those of the source. Rule as the data show it: active = GI50 up to about 1.1 µM and inactive = higher.

Among the test systems are CAKI-1; CCRF-CEM; COLO 205; HCT-15; HT-29; IGROV-1; KM12; MCF7; MOLT-4; NCI-H23; OVCAR-5; OVCAR-8; RXF 393; SF-295; SK-MEL-2; SK-MEL-5; SK-OV-3; SNB-75; SW-620; UACC-257.
Assay in all cases: inhibition of tumour cell growth, NCI panel, 48 h

With `N/C(S)=N/N=C/c1cc(CN2CCOCC2)c(N)cn1`, the GI50 in the assay with CAKI-1 was 45.7 µM (inactive); with CCRF-CEM, 40.1 µM (inactive); with COLO 205 it was 26.8 µM (inactive); in the assay on HCT-15, 15 µM; in the assay with HT-29 it was 50.2 µM (inactive); in the assay on IGROV-1, 50.5 µM (inactive). Further, the GI50 in the assay with KM12 is 23.6 µM (inactive); in the assay with MCF7 it was 31.4 µM (inactive); in the assay on MOLT-4, 48.1 µM (inactive); in the assay on NCI-H23 it was 39.4 µM (inactive); in the assay with OVCAR-5, 60.3 µM (inactive); in the assay with OVCAR-8, 18.5 µM (inactive). Moreover, the GI50 in the assay on RXF 393 was > 100 µM (inactive); with SF-295 it was 36 µM (inactive); in the assay with SK-MEL-2 it was 84.3 µM (inactive); in the assay with SK-MEL-5 it was 35.2 µM (inactive); in the assay on SK-OV-3, 53 µM (inactive); with SNB-75, 25 µM (inactive). The GI50 with SW-620 is 62.1 µM (inactive); in the assay with UACC-257, 28.6 µM (inactive).

For the compound `Nc1nc2ccc3ccccc3c2[nH]1`, the GI50 in the assay on CAKI-1 is > 10 µM (inactive); with CCRF-CEM, > 10 µM (inactive); in the assay on COLO 205 it was > 10 µM (inactive); in the assay with HCT-15, > 10 µM; in the assay with HT-29 it was > 10 µM (inactive); with IGROV-1, > 10 µM (inactive). Also, the GI50 in the assay with KM12, in the assay on MCF7, in the assay on MOLT-4, in the assay on NCI-H23, in the assay with OVCAR-5 and in the assay with OVCAR-8 was > 10 µM (inactive) throughout. Also, the GI50 in the assay with RXF 393, with SF-295, in the assay with SK-MEL-2, with SK-MEL-5, with SK-OV-3 and with SNB-75 was > 10 µM (inactive) throughout. The GI50 in the assay with SW-620 was > 10 µM (inactive).

Turning to `Cc1c(N2C(=O)/C(=C/c3ccc(N(CCC#N)CCC#N)cc3)N=C2c2ccccc2)c(=O)n(-c2ccccc2)n1C`, the GI50 in the assay on CAKI-1 is > 100 µM (inactive); with CCRF-CEM it was 59.6 µM (inactive); in the assay with COLO 205 it was > 100 µM (inactive); in the assay with HCT-15, 70 µM; with HT-29, > 100 µM (inactive); with IGROV-1, > 100 µM (inactive). The GI50 is > 100 µM (inactive) with KM12; > 100 µM (inactive) with MCF7; 75.7 µM (inactive) with MOLT-4; > 100 µM (inactive) in the assay on NCI-H23; > 100 µM (inactive) in the assay with OVCAR-5; > 100 µM (inactive) in the assay on OVCAR-8. In addition, the GI50 in the assay with RXF 393, with SF-295, in the assay on SK-MEL-2, with SK-MEL-5, in the assay with SK-OV-3 and in the assay with SW-620 was > 100 µM (inactive) each time. The GI50 with UACC-257 is > 100 µM (inactive).

As to `COc1ccc(/C=C2\CCC/C(=C\c3ccc(O)c(CN4CCCCC4)c3)C2=O)cc1`, the GI50 with CAKI-1 is 11.1 µM (inactive); in the assay with CCRF-CEM, 4.02 µM (inactive); with COLO 205, 8.09 µM (inactive); in the assay with HCT-15, 3.52 µM; in the assay with HT-29, 2.3 µM (inactive); in the assay with IGROV-1, 4.7 µM (inactive). In addition, the GI50 with KM12 is 2.3 µM (inactive); in the assay with MCF7, 3.73 µM (inactive); in the assay on MOLT-4, 2.59 µM (inactive); in the assay with NCI-H23 it was 4.93 µM (inactive); with OVCAR-5, 22.5 µM (inactive); in the assay on OVCAR-8 it was 2.81 µM (inactive). Also, the GI50 in the assay with RXF 393 was 20.3 µM (inactive); with SF-295, 6.95 µM (inactive); in the assay with SK-MEL-2 it was 11.2 µM (inactive); in the assay with SK-MEL-5 it was 4.25 µM (inactive); in the assay on SK-OV-3, 22.3 µM (inactive); in the assay on SNB-75, 12.6 µM (inactive). Further, the GI50 with SW-620 is 3.33 µM (inactive); in the assay with UACC-257, 4.76 µM (inactive).

For the compound `CC(=O)c1ccccc1NP(=O)(c1ccccc1)c1ccccc1`, the GI50 in the assay with CAKI-1 is 30.8 µM (inactive); with CCRF-CEM, 33.5 µM (inactive); with COLO 205 it was 13.2 µM (inactive); with HCT-15, 66.4 µM; in the assay with HT-29, 47.1 µM (inactive); in the assay with IGROV-1, 46.5 µM (inactive). For the same compound, the GI50 is 50.7 µM (inactive) with KM12; 64.6 µM (inactive) in the assay on MCF7; 32.1 µM (inactive) with MOLT-4; 79.1 µM (inactive) in the assay on NCI-H23; > 100 µM (inactive) in the assay on OVCAR-5; > 100 µM (inactive) with OVCAR-8. Moreover, the GI50 with RXF 393 was 43.2 µM (inactive); with SF-295, 74.6 µM (inactive); with SK-MEL-2, 54.1 µM (inactive); with SK-MEL-5, 47.3 µM (inactive); in the assay with SK-OV-3, 20.4 µM (inactive); with SW-620 it was 97.7 µM (inactive). Besides, the GI50 with UACC-257 is 68.9 µM (inactive).

`Oc1ccc(Cl)cc1C1=NC(/N=C\c2ccccc2)=NC(c2ccccc2)C1` (centres undefined): the GI50 with CAKI-1 is 4.3 µM (inactive); in the assay on CCRF-CEM it was > 100 µM (inactive); with COLO 205 it was > 100 µM (inactive); in the assay on HT-29, 24.8 µM (inactive); with IGROV-1, 7.01 µM (inactive); in the assay with KM12 it was 10.5 µM (inactive). Moreover, the GI50 is 7.83 µM (inactive) with MCF7; > 100 µM (inactive) with MOLT-4; 3.87 µM (inactive) in the assay with NCI-H23; > 100 µM (inactive) in the assay with OVCAR-5; 20 µM (inactive) in the assay on OVCAR-8; 66.1 µM (inactive) in the assay with RXF 393. The GI50 with SF-295 was > 100 µM (inactive); in the assay with SK-MEL-2 it was > 100 µM (inactive); in the assay with SK-MEL-5, 14.1 µM (inactive); in the assay with SK-OV-3, 16.3 µM (inactive); in the assay on SNB-75, 17.5 µM (inactive); in the assay with SW-620 it was > 100 µM (inactive). The GI50 in the assay with UACC-257 was > 100 µM (inactive).

On to `C/C=C(/C)C(=O)O[C@H]1[C@H]2[C@@H]([C@@H](OC(C)=O)[C@H](C)C(=O)[C@@]34C[C@@H](C)C(=O)[C@]3(/C=C(\C)[C@H]1OC(C)=O)O4)C2(C)C`, for which the GI50 in the assay on CAKI-1 was 4.42 µM (inactive); in the assay with CCRF-CEM it was 0.463 µM (active); with COLO 205, 2.6 µM (inactive); with HCT-15, 3 µM; with IGROV-1, 4.5 µM (inactive); in the assay on KM12 it was 5.58 µM (inactive). The GI50 in the assay with MCF7 is 3.26 µM (inactive); in the assay with MOLT-4, 1.83 µM (inactive); in the assay on NCI-H23, 6.46 µM (inactive); in the assay with OVCAR-5, 3.94 µM (inactive); with OVCAR-8 it was 3.48 µM (inactive); in the assay on RXF 393 it was 3.6 µM (inactive). Moreover, the GI50 with SF-295 is 3.89 µM (inactive); in the assay with SK-MEL-2 it was 4.27 µM (inactive); in the assay with SK-MEL-5, 3.64 µM (inactive); in the assay with SK-OV-3, 16 µM (inactive); in the assay with SNB-75 it was 4.98 µM (inactive); in the assay on SW-620 it was 3.39 µM (inactive). Also, the GI50 in the assay with UACC-257 is 4.09 µM (inactive).

For `O=c1c(-c2ccccc2)c(SCCN2CCOCC2)n(-c2ccccc2)c(=S)n1-c1ccccc1`, the GI50 in the assay with CAKI-1 is 52 µM (inactive); with CCRF-CEM, > 100 µM (inactive); in the assay on COLO 205, > 100 µM (inactive); in the assay with HCT-15, > 100 µM; in the assay on IGROV-1 it was > 100 µM (inactive); with KM12, > 100 µM (inactive). For the same compound, the GI50 is 80.9 µM (inactive) in the assay with MCF7; > 100 µM (inactive) with MOLT-4; > 100 µM (inactive) in the assay with NCI-H23; > 100 µM (inactive) in the assay with OVCAR-5; 63 µM (inactive) in the assay on OVCAR-8; 46.9 µM (inactive) with RXF 393. Further, the GI50 in the assay with SF-295 is 83.6 µM (inactive); in the assay on SK-MEL-2, > 100 µM (inactive); in the assay on SK-MEL-5, > 100 µM (inactive); in the assay with SK-OV-3, > 100 µM (inactive); with SNB-75, 26.4 µM (inactive); in the assay with SW-620 it was > 100 µM (inactive). For the same compound, the GI50 in the assay on UACC-257 was > 100 µM (inactive).

Regarding `Cc1ccc(S(=O)(=O)NCCSS(=O)(=O)c2ccc(C)cc2)cc1`, the GI50 in the assay on CCRF-CEM is 24.3 µM (inactive); with COLO 205 it was 56 µM (inactive); with HCT-15 it was 18.7 µM; in the assay with HT-29, 22.6 µM (inactive); in the assay with KM12, 28.1 µM (inactive); in the assay with MCF7, 22.3 µM (inactive). The GI50 is 26.8 µM (inactive) with MOLT-4; 57.4 µM (inactive) in the assay with NCI-H23; 37.9 µM (inactive) in the assay on OVCAR-8; 33.8 µM (inactive) in the assay on RXF 393; 35.6 µM (inactive) with SF-295; 20.7 µM (inactive) in the assay on SK-MEL-5. The GI50 was > 100 µM (inactive) with SK-OV-3, 30.4 µM (inactive) in the assay with SNB-75, 19.5 µM (inactive) in the assay with SW-620 and 64.1 µM (inactive) in the assay on UACC-257.

Regarding `O=C(CCCn1cnc([N+](=O)[O-])n1)NCCn1ccnc1[N+](=O)[O-]`, the GI50 in the assay with CAKI-1 is > 100 µM (inactive); in the assay with CCRF-CEM, > 100 µM (inactive); in the assay on COLO 205, > 100 µM (inactive); with HCT-15, > 100 µM; with HT-29, > 100 µM (inactive); in the assay on IGROV-1 it was > 100 µM (inactive). For the same compound, the GI50 in the assay with KM12, with MCF7, with MOLT-4, with NCI-H23, with OVCAR-5 and in the assay on RXF 393 was > 100 µM (inactive) throughout. The GI50 with SF-295, in the assay on SK-MEL-2, with SK-MEL-5, in the assay on SK-OV-3, in the assay with SNB-75 and in the assay with SW-620 was > 100 µM (inactive) each time. For the same compound, in the assay on UACC-257, the GI50 is > 100 µM (inactive).
